Measured values: ChEMBL document CHEMBL5370535, “Thiazolyl hydrazineylidenyl indolones as unique potential multitargeting broad-spectrum antimicrobial agents” (Eur J Med Chem, 2023)
In brackets after ≈: the same amount, converted by molar mass.

Experiments:
Type in all cases: functional
[1] = tested on: Aspergillus fumigatus; test: Antifungal activity against Aspergillus fumigatus assessed as inhibition of fungal growth incubated for 24 hrs by CLSI based two serial dilution assay
[2] = tested on: Candida albicans; test: Antifungal activity against Candida albicans ATCC 90023 assessed as inhibition of fungal growth incubated for 24 hrs by CLSI based two serial dilution assay
[3] = tested on: Enterococcus faecalis; test: Antibacterial activity against Enterococcus faecalis assessed as bacterial growth inhibition incubated for 24 hrs by CLSI based two serial dilution assay
[4] = tested on: Escherichia coli; test: Antibacterial activity against Escherichia coli 25922 assessed as bacterial growth inhibition incubated for 24 hrs by CLSI based two serial dilution assay
[5] = tested on: Candida parapsilosis; test: Antifungal activity against Candida parapsilosis ATCC 22019 assessed as inhibition of fungal growth incubated for 24 hrs by CLSI based two serial dilution assay; details: Lodderomyces parapsilosis
[6] = tested on: Acinetobacter baumannii; test: Antibacterial activity against Acinetobacter baumannii assessed as bacterial growth inhibition incubated for 24 hrs by CLSI based two serial dilution assay
[7] = tested on: Staphylococcus aureus; test: Antibacterial activity against Staphylococcus aureus assessed as bacterial growth inhibition incubated for 24 hrs by CLSI based two serial dilution assay
[8] = tested on: Staphylococcus aureus; test: Antibacterial activity against Staphylococcus aureus 25923 assessed as bacterial growth inhibition incubated for 24 hrs by CLSI based two serial dilution assay
[9] = tested on: Candida tropicalis; test: Antifungal activity against Candida tropicalis assessed as inhibition of fungal growth incubated for 24 hrs by CLSI based two serial dilution assay
[10] = tested on: Escherichia coli; test: Antibacterial activity against Escherichia coli assessed as bacterial growth inhibition incubated for 24 hrs by CLSI based two serial dilution assay
[11] = tested on: Staphylococcus aureus; test: Antibacterial activity against methicillin-resistant Staphylococcus aureus assessed as bacterial growth inhibition incubated for 24 hrs by CLSI based two serial dilution assay
[12] = tested on: Klebsiella pneumoniae; test: Antibacterial activity against Klebsiella pneumoniae assessed as bacterial growth inhibition incubated for 24 hrs by CLSI based two serial dilution assay
[13] = tested on: Staphylococcus aureus; test: Antibacterial activity against Staphylococcus aureus 29213 assessed as bacterial growth inhibition incubated for 24 hrs by CLSI based two serial dilution assay
[14] = tested on: Pseudomonas aeruginosa; test: Antibacterial activity against Pseudomonas aeruginosa assessed as bacterial growth inhibition incubated for 24 hrs by CLSI based two serial dilution assay
[15] = tested on: Pseudomonas aeruginosa; test: Antibacterial activity against Pseudomonas aeruginosa ATCC 27853 assessed as bacterial growth inhibition incubated for 24 hrs by CLSI based two serial dilution assay
[16] = tested on: Candida albicans; test: Antifungal activity against Candida albicans assessed as inhibition of fungal growth incubated for 24 hrs by CLSI based two serial dilution assay

SMILES: CCCCCCCCCCN1C(=O)/C(=N\Nc2nccs2)c2ccccc21
- MIC [1]: 512 µM (≈ 197 µg/mL)
- MIC [2]: 256 µM (≈ 98.4 µg/mL)
- MIC [3]: 4 µM (≈ 1.54 µg/mL)
- MIC [4]: 64 µM (≈ 24.6 µg/mL)
- MIC [5]: 256 µM (≈ 98.4 µg/mL)
- MIC [6]: 512 µM (≈ 197 µg/mL)
- MIC [7]: 512 µM (≈ 197 µg/mL)
- MIC [8]: 512 µM (≈ 197 µg/mL)
- MIC [9]: 64 µM (≈ 24.6 µg/mL)
- MIC [10]: 512 µM (≈ 197 µg/mL)
- MIC [11]: 512 µM (≈ 197 µg/mL)
- MIC [12]: 256 µM (≈ 98.4 µg/mL)
- MIC [13]: 512 µM (≈ 197 µg/mL)
- MIC [14]: 64 µM (≈ 24.6 µg/mL)
- MIC [15]: 512 µM (≈ 197 µg/mL)
- MIC [16]: 512 µM (≈ 197 µg/mL)

SMILES: CCCCN1C(=O)/C(=N\Nc2nccs2)c2cc(Br)ccc21
- MIC [1]: 16 µM (≈ 6.07 µg/mL)
- MIC [2]: 64 µM (≈ 24.3 µg/mL)
- MIC [3]: 32 µM (≈ 12.1 µg/mL)
- MIC [4]: 16 µM (≈ 6.07 µg/mL)
- MIC [5]: 32 µM (≈ 12.1 µg/mL)
- MIC [6]: 16 µM (≈ 6.07 µg/mL)
- MIC [7]: 64 µM (≈ 24.3 µg/mL)
- MIC [8]: 32 µM (≈ 12.1 µg/mL)
- MIC [9]: 64 µM (≈ 24.3 µg/mL)
- MIC [10]: 16 µM (≈ 6.07 µg/mL)
- MIC [11]: 16 µM (≈ 6.07 µg/mL)
- MIC [12]: 256 µM (≈ 97.1 µg/mL)
- MIC [13]: 16 µM (≈ 6.07 µg/mL)
- MIC [14]: 8 µM (≈ 3.03 µg/mL)
- MIC [15]: 256 µM (≈ 97.1 µg/mL)
- MIC [16]: 32 µM (≈ 12.1 µg/mL)

SMILES: CCCCCN1C(=O)/C(=N\Nc2nccs2)c2ccccc21
- MIC [1]: 4 µM (≈ 1.26 µg/mL)
- MIC [2]: 4 µM (≈ 1.26 µg/mL)
- MIC [3]: 4 µM (≈ 1.26 µg/mL)
- MIC [4]: 4 µM (≈ 1.26 µg/mL)
- MIC [5]: 4 µM (≈ 1.26 µg/mL)
- MIC [6]: 4 µM (≈ 1.26 µg/mL)
- MIC [7]: 4 µM (≈ 1.26 µg/mL)
- MIC [8]: 16 µM (≈ 5.03 µg/mL)
- MIC [9]: 16 µM (≈ 5.03 µg/mL)
- MIC [10]: 16 µM (≈ 5.03 µg/mL)
- MIC [11]: 4 µM (≈ 1.26 µg/mL)
- MIC [12]: 4 µM (≈ 1.26 µg/mL)
- MIC [13]: 4 µM (≈ 1.26 µg/mL)
- MIC [14]: 2 µM (≈ 0.629 µg/mL)
- MIC [15]: 16 µM (≈ 5.03 µg/mL)
- MIC [16]: 4 µM (≈ 1.26 µg/mL)

SMILES: CCCCN1C(=O)/C(=N\Nc2nccs2)c2ccc(Br)cc21
- MIC [1]: 0.5 µM (≈ 0.19 µg/mL)
- MIC [2]: 1 µM (≈ 0.379 µg/mL)
- MIC [3]: 4 µM (≈ 1.52 µg/mL)
- MIC [4]: 16 µM (≈ 6.07 µg/mL)
- MIC [5]: 0.5 µM (≈ 0.19 µg/mL)
- MIC [6]: 0.5 µM (≈ 0.19 µg/mL)
- MIC [7]: 1 µM (≈ 0.379 µg/mL)
- MIC [8]: 0.5 µM (≈ 0.19 µg/mL)
- MIC [9]: 1 µM (≈ 0.379 µg/mL)
- MIC [10]: 0.5 µM (≈ 0.19 µg/mL)
- MIC [11]: 1 µM (≈ 0.379 µg/mL)
- MIC [12]: 0.5 µM (≈ 0.19 µg/mL)
- MIC [13]: 4 µM (≈ 1.52 µg/mL)
- MIC [14]: 1 µM (≈ 0.379 µg/mL)
- MIC [15]: 0.5 µM (≈ 0.19 µg/mL)
- MIC [16]: 0.5 µM (≈ 0.19 µg/mL)

SMILES: CCCCN1C(=O)/C(=N\Nc2nccs2)c2ccc(F)cc21
- MIC [1]: 2 µM (≈ 0.637 µg/mL)
- MIC [2]: 4 µM (≈ 1.27 µg/mL)
- MIC [3]: 32 µM (≈ 10.2 µg/mL)
- MIC [4]: 4 µM (≈ 1.27 µg/mL)
- MIC [5]: 1 µM (≈ 0.318 µg/mL)
- MIC [6]: 1 µM (≈ 0.318 µg/mL)
- MIC [7]: 4 µM (≈ 1.27 µg/mL)
- MIC [8]: 4 µM (≈ 1.27 µg/mL)
- MIC [9]: 32 µM (≈ 10.2 µg/mL)
- MIC [10]: 2 µM (≈ 0.637 µg/mL)
- MIC [11]: 4 µM (≈ 1.27 µg/mL)
- MIC [12]: 2 µM (≈ 0.637 µg/mL)
- MIC [13]: 4 µM (≈ 1.27 µg/mL)
- MIC [14]: 1 µM (≈ 0.318 µg/mL)
- MIC [15]: 2 µM (≈ 0.637 µg/mL)
- MIC [16]: 2 µM (≈ 0.637 µg/mL)

SMILES: CCCCCCN1C(=O)/C(=N\Nc2nccs2)c2ccccc21
- MIC [1]: 32 µM (≈ 10.5 µg/mL)
- MIC [2]: 64 µM (≈ 21 µg/mL)
- MIC [3]: 4 µM (≈ 1.31 µg/mL)
- MIC [4]: 16 µM (≈ 5.26 µg/mL)
- MIC [5]: 64 µM (≈ 21 µg/mL)
- MIC [6]: 16 µM (≈ 5.26 µg/mL)
- MIC [7]: 16 µM (≈ 5.26 µg/mL)
- MIC [8]: 32 µM (≈ 10.5 µg/mL)
- MIC [9]: 16 µM (≈ 5.26 µg/mL)
- MIC [10]: 64 µM (≈ 21 µg/mL)
- MIC [11]: 64 µM (≈ 21 µg/mL)
- MIC [12]: 16 µM (≈ 5.26 µg/mL)
- MIC [13]: 2 µM (≈ 0.657 µg/mL)
- MIC [14]: 4 µM (≈ 1.31 µg/mL)
- MIC [15]: 32 µM (≈ 10.5 µg/mL)
- MIC [16]: 32 µM (≈ 10.5 µg/mL)

SMILES: O=C1/C(=N\Nc2nccs2)c2ccccc2N1Cc1ccccc1Cl
- MIC [1]: 16 µM (≈ 5.9 µg/mL)
- MIC [2]: 4 µM (≈ 1.48 µg/mL)
- MIC [3]: 32 µM (≈ 11.8 µg/mL)
- MIC [4]: 256 µM (≈ 94.4 µg/mL)
- MIC [5]: 4 µM (≈ 1.48 µg/mL)
- MIC [6]: 512 µM (≈ 189 µg/mL)
- MIC [7]: 8 µM (≈ 2.95 µg/mL)
- MIC [8]: 64 µM (≈ 23.6 µg/mL)
- MIC [9]: 16 µM (≈ 5.9 µg/mL)
- MIC [10]: 256 µM (≈ 94.4 µg/mL)
- MIC [11]: 8 µM (≈ 2.95 µg/mL)
- MIC [12]: 512 µM (≈ 189 µg/mL)
- MIC [13]: 64 µM (≈ 23.6 µg/mL)
- MIC [14]: 32 µM (≈ 11.8 µg/mL)
- MIC [15]: 512 µM (≈ 189 µg/mL)
- MIC [16]: 16 µM (≈ 5.9 µg/mL)

SMILES: CCCCCCCCCCCCN1C(=O)/C(=N\Nc2nccs2)c2ccccc21
- MIC [1]: 32 µM (≈ 13.2 µg/mL)
- MIC [2]: 128 µM (≈ 52.8 µg/mL)
- MIC [3]: 4 µM (≈ 1.65 µg/mL)
- MIC [4]: 32 µM (≈ 13.2 µg/mL)
- MIC [5]: 64 µM (≈ 26.4 µg/mL)
- MIC [6]: 64 µM (≈ 26.4 µg/mL)
- MIC [7]: 32 µM (≈ 13.2 µg/mL)
- MIC [8]: 4 µM (≈ 1.65 µg/mL)
- MIC [9]: 16 µM (≈ 6.6 µg/mL)
- MIC [10]: 64 µM (≈ 26.4 µg/mL)
- MIC [11]: 128 µM (≈ 52.8 µg/mL)
- MIC [12]: 32 µM (≈ 13.2 µg/mL)
- MIC [13]: 4 µM (≈ 1.65 µg/mL)
- MIC [14]: 16 µM (≈ 6.6 µg/mL)
- MIC [15]: 16 µM (≈ 6.6 µg/mL)
- MIC [16]: 32 µM (≈ 13.2 µg/mL)

SMILES: O=C1/C(=N\Nc2nccs2)c2ccccc2N1Cc1ccc(F)cc1
- MIC [1]: 128 µM (≈ 45.1 µg/mL)
- MIC [2]: 128 µM (≈ 45.1 µg/mL)
- MIC [3]: 2 µM (≈ 0.705 µg/mL)
- MIC [4]: 16 µM (≈ 5.64 µg/mL)
- MIC [5]: 64 µM (≈ 22.6 µg/mL)
- MIC [6]: 16 µM (≈ 5.64 µg/mL)
- MIC [7]: 64 µM (≈ 22.6 µg/mL)
- MIC [8]: 4 µM (≈ 1.41 µg/mL)
- MIC [9]: 32 µM (≈ 11.3 µg/mL)
- MIC [10]: 16 µM (≈ 5.64 µg/mL)
- MIC [11]: 128 µM (≈ 45.1 µg/mL)
- MIC [12]: 16 µM (≈ 5.64 µg/mL)
- MIC [13]: 4 µM (≈ 1.41 µg/mL)
- MIC [14]: 16 µM (≈ 5.64 µg/mL)
- MIC [15]: 4 µM (≈ 1.41 µg/mL)
- MIC [16]: 32 µM (≈ 11.3 µg/mL)

SMILES: CCCCCCCCN1C(=O)/C(=N\Nc2nccs2)c2ccccc21
- MIC [1]: 512 µM (≈ 183 µg/mL)
- MIC [2]: 256 µM (≈ 91.3 µg/mL)
- MIC [3]: 32 µM (≈ 11.4 µg/mL)
- MIC [4]: 256 µM (≈ 91.3 µg/mL)
- MIC [5]: 128 µM (≈ 45.6 µg/mL)
- MIC [6]: 512 µM (≈ 183 µg/mL)
- MIC [7]: 512 µM (≈ 183 µg/mL)
- MIC [8]: 512 µM (≈ 183 µg/mL)
- MIC [9]: 512 µM (≈ 183 µg/mL)
- MIC [10]: 512 µM (≈ 183 µg/mL)
- MIC [11]: 512 µM (≈ 183 µg/mL)
- MIC [12]: 512 µM (≈ 183 µg/mL)
- MIC [13]: 512 µM (≈ 183 µg/mL)
- MIC [14]: 64 µM (≈ 22.8 µg/mL)
- MIC [15]: 128 µM (≈ 45.6 µg/mL)
- MIC [16]: 512 µM (≈ 183 µg/mL)
